Experimental data as given in patent US20080176811A1, “NOVEL FLAVONE GLYCOSIDE DERIVATIVES FOR USE IN COSMETICS, PHARMACEUTICALS AND NUTRITION” (priority 2000, published 2008).
Entries after “also recorded” stand apart in the source; their conditions may differ. Like-named read-outs stand apart in the source and are kept apart here.

Key:
[1] = system: fungal tyrosinase (Sigma); assay: Inhibition of tyrosinase activity (L-DOPA to dopachromium, absorption at 475 nm); format: biochemical; conditions: for Residual tyrosinase activity in %: without active substance = 100%
Protocol: Tyrosinases physiologially catalyze an important step in the synthesis of melanin (L-dopa to L-dopaquinone which is further cyclized and re-reacted by a tyrosinase to dopachromium). Accordingly, inhibition of the tyrosinase can lead to a skin lightening effect.
The activity of fungal tyrosinase (Sigma) was determined in the presence of various concentrations of the active substances according to the invention by enzymatic reaction of LDOPA to dopachromium. The absorption maximum of dopachromium (red-brown) is at λ=475 nm. The linear increase in the absorption (A) of the dopachromium per unit of time (t) is a measure of the activity of the tyrosinase (ΔN/Δt). The activity of the tyrosinase in the absence of the active substances (ΔA1/Δt1) was used as reference (100%). Under analogous conditions, the residual tyrosinase activity was determined in the presence of the active substances (ΔA2/Δt2). Each measurement was carried out twice in parallel runs. The variation of the results of the method is ca.±10%.
50 mM KH2PO4 buffer in bidist. water (adjustment to pH 6.5 with 1 M aqueous KOH) 2.5 mM L-DOPA in bidist. water 340 U/ml tyrosinase stock solution in cold KH2PO4 buffer, pH 6.5. Stock solutions of the active substance to be tested in bidist. water or ethanol in which the concentration of the active substance was 10 times higher than indicated in the line “active substance concentration in the test system” under “results”.
Like the tyrosinase stock solution, the reaction cocktail was prepared just before the beginning of the test. The tyrosinase stock solution has to be kept in a refrigerator. The L-DOPA solutions should be stored in darkness and in tightly closed containers in the absence of oxygen. If it turns grey in color (oxidation by atmospheric oxygen), the solution must be freshly prepared.
33 μl tyrosinase stock solution 100 μl active substance stock solution reaction cocktail to 1000 μl
The activity of the tyrosinase in the absence of the active substances was used as reference (100%). All samples were thoroughly mixed in a Vibrofix before the beginning of the measurement. The pH value was monitored and if necessary was adjusted to pH 6.5. The measurement was carried out with a Kontron Uvikon 860 photometer. The absorption of the dopachromium was detected for 5 mins. at 25° C. at the absorption maximum X of 475 nm, the measuring time being 20-30 s.

[2] = system: Dermal fibroblasts of human skin; assay: Phototoxicity, MTT test after simulated sunlight (10 J UV-A/cm^2); format: cell-based
Protocol: Dermal fibroblasts of human skin were cultivated with increasing concentrations of retinol (Table 1), 6-O-naringin-(p-Cl-phenylacetic acid)ester (Table 2) and 6-O-naringin-(3-phenylpropionic acid)-ester (Table 3). The phototoxicity of the substances was measured by an MTT test. To determine phototoxicity, the treated cells were exposed to simulated sunlight corresponding to a dose of 10 J UV-A/cm^2. The vitality of untreated cells was put at 100% and all other values were related to that value.
The exposure of the cells was carried out with a sunlight simulator from the emission spectrum of which the UV-A component of the radiation was measured for quantification. The advantage of this experimental design is the fact that the complete spectrum of the sunlight is used so that the everyday situation is excellently simulated. By contrast, many other research laboratories use pure UV-A and for UV-B lamps.

MMP-1-mRNA = assay: Light-induced expression of MMP-1-mRNA in skin models (Northern blot); format: cell-based; conditions: for MMP 1 expression: 0 ppm unexposed = 100; for percentage change in the expression of MMP: by comparison with exposed, untreated cultures
Protocol: (§1) To this end, the quantity of mRNA was quantified for MMP1, TIMP and Colaα1. Skin models were treated with the test substances for 12 hours and then exposed to simulated sunlight corresponding to a dose of 10 J UV-A/cm^2. After another 48 hours in the presence of the active substances, the RNA of the cells was prepared and analyzed by Northern blots with specific gene probes. To monitor the quantity of RNA used in the experiments, Northern blots were carried out with an 18S-specific gene probe. To quantify the signal intensities, the autoradiograms were evaluated by densitometry and the values of the signals for MMP1, TIMP and Colα1, were related to the associated values of the 18S signals. The figures in Table 1 represent the densitometric quantification of the signals of a Northern blot after normalization thereof.

TIMP-mRNA = assay: Light-induced expression of TIMP-mRNA in skin models (Northern blot); format: cell-based; conditions: for TIMP expression: 0 ppm unexposed = 100; for percentage change in the expression of TIMP: by comparison with exposed, untreated cultures
Protocol: as §1

Colα1-mRNA = assay: Light-induced expression of Colα1-mRNA in skin models (Northern blot); format: cell-based; conditions: for Collagen expression: exposed, 0 ppm unexposed = 100; for percentage change in the expression of Colα1: by comparison with exposed, untreated cultures
Protocol: as §1

fibroblasts = assay: Collagen production at protein level, fibroblasts in three-dimensional culture system; format: cell-based; conditions: 5 days, treated against untreated cultures
Protocol: On the sixth day, the quantity of collagen formed compared with non-collagen protein was determined via the incorporation of titrated protein.

What does the source list for `CC1OC(OC2C(Oc3cc(O)c4c(c3)OC(c3ccc(O)cc3)CC4=O)OC(COC(=O)Cc3ccc(Cl)cc3)C(O)C2O)C(O)C(O)C1O` (stereo not shown) [6-O-naringin-(p-Cl-phenylacetic acid)-ester]?
Residual tyrosinase activity in % ([1]; active substance 0.01% (w/v in 98% ethanol)): 45.1%; Residual tyrosinase activity in % ([1]; active substance 0.1% (w/v in 98% ethanol)): 15.4%; Vitality (%; in brackets: SEM) ([2]; 5 ppm, 10 J UV-A/cm^2, untreated cells = 100%): 115 (15) %; Vitality (%; in brackets: SEM) ([2]; 10 ppm, 10 J UV-A/cm^2, untreated cells = 100%): 96 (17.2) %; Vitality (%; in brackets: SEM) ([2]; 50 ppm, 10 J UV-A/cm^2, untreated cells = 100%): 81 (8.3) %; Vitality (%; in brackets: SEM) ([2]; 100 ppm, 10 J UV-A/cm^2, untreated cells = 100%): 3 (1.7) %; Vitality (%; in brackets: SEM) ([2]; 500 ppm, 10 J UV-A/cm^2, untreated cells = 100%): 3 (1.8) %; Phototoxicity (in words) ([2]; compared with retinol, 10 J UV-A/cm^2): only show toxic effects in relatively high concentrations; MMP 1 expression (MMP-1-mRNA; 5 ppm, exposed (10 J UV-A/cm^2)): 129%; sunlight-induced expression of MMP-1 (in words) (MMP-1-mRNA; 50 ppm): very effectively reduced; MMP 1 expression (MMP-1-mRNA; 50 ppm, exposed): 40%; percentage change in the expression of MMP (MMP-1-mRNA; 50 ppm): −70%; TIMP expression (TIMP-mRNA; 5 ppm, exposed): 62%; expression of TIMP (in words) (TIMP-mRNA; 50 ppm): only slightly affected; also recorded: only a slight effect; TIMP expression (TIMP-mRNA; 50 ppm, exposed): 77%; percentage change in the expression of TIMP (TIMP-mRNA; 50 ppm): −15%; Collagen expression (Colα1-mRNA; 5 ppm): 56%; Collagen expression (Colα1-mRNA; 50 ppm): 79%; percentage change in the expression of Colα1 (Colα1-mRNA; 50 ppm): 27%; expression of Colα1 (in words) (Colα1-mRNA; 50 ppm, in relation to the exposed, untreated sample): distinctly increased; Increase in collagen production (fibroblasts; 5 ppm): −3%; Increase in collagen production (fibroblasts; 50 ppm): 41%

Which “Residual tyrosinase activity in %” value ([1]; active substance 0.005% (w/v in bidist H2O)) does the source give for `C[C@@H]1O[C@@H](O[C@H]2[C@H](Oc3cc(O)c4c(c3)O[C@H](c3ccc(O)cc3)CC4=O)O[C@H](COC(=O)CCc3ccccc3)[C@@H](O)[C@@H]2O)[C@H](O)[C@H](O)[C@H]1O` [6-O-naringin-(3-phenylpropionic acid)-ester] here?
Its value is 98.9%.

What about the “Residual tyrosinase activity in %” value ([1]; active substance 0.05% (w/v in bidist H2O)) of the same molecule?
Its value is 69.1%.

What about the “Residual tyrosinase activity in %” value ([1]; active substance 0.5% (w/v in bidist H2O)) of the same molecule?
Its value is 0.7%.

And the “IC 50 (tyrosinase)” value ([1]; w/v in bidist H2O)?
Its value is 0.18%.

What about the “Phototoxicity (in words)” value [2] of the same molecule?
Its value is “only show toxic effects in relatively high concentrations”.

And the “MMP 1 expression” value (MMP-1-mRNA; 10 ppm, exposed)?
Its value is 167%.

What about the “sunlight-induced expression of MMP-1 (in words)” value (MMP-1-mRNA; 100 ppm) of the same molecule?
The value was “reduced the sunlight-induced expression of MMP-1 to the level of the unexposed, untreated sample”.

What about the “MMP 1 expression” value (MMP-1-mRNA; 100 ppm, exposed) of the same molecule?
Its value is 87%.

And the “percentage change in the expression of MMP” value (MMP-1-mRNA; 100 ppm)?
The value was −37%.

What about the TIMP expression (TIMP-mRNA; 10 ppm, exposed) of the same molecule?
Its TIMP expression is 104%.

What about the “TIMP production (in words)” value (TIMP-mRNA; 100 ppm) of the same molecule?
The value was “increased TIMP production considerably”.

What about the “increase in expression of TIMP” value (TIMP-mRNA; 100 ppm, exposed) of the same molecule?
The value was “around 35%”.

And the TIMP expression (TIMP-mRNA; 100 ppm, exposed)?
Its TIMP expression is 134%.

And the “percentage change in the expression of TIMP” value (TIMP-mRNA; 100 ppm)?
The value was 50%.

And the Collagen expression (Colα1-mRNA; 10 ppm)?
Its Collagen expression is 74%.

What about the “expression of Colα1 (in words)” value (Colα1-mRNA; 100 ppm) of the same molecule?
Its value is “increased to the level of the unexposed, untreated culture”.

What about the Collagen expression (Colα1-mRNA; 100 ppm) of the same molecule?
Its Collagen expression is 99%.

And the “percentage change in the expression of Colα1” value (Colα1-mRNA; 100 ppm)?
Its value is 64%.

And the “Increase in collagen production” value (fibroblasts; 1 ppm)?
Its value is 8%.

And the “Increase in collagen production” value (fibroblasts; 10 ppm)?
Its value is 8%.

What about the “Increase in collagen production” value (fibroblasts; 100 ppm) of the same molecule?
The value was 19%.

What does the source list for `CC1=C(/C=C/C(C)=C/C=C/C(C)=C/CO)C(C)(C)CCC1` [retinol, reference compound]?
Phototoxicity (in words) [2]: toxic in very low concentrations; Vitality (%; in brackets: SEM) ([2]; human, 0.0028 ppm): 99 (7.4) %; Vitality (%; in brackets: SEM) ([2]; human, 0.014 ppm): 95 (19.8) %; Vitality (%; in brackets: SEM) ([2]; human, 0.028 ppm): 80 (25.9) %; Vitality (%; in brackets: SEM) ([2]; human, 0.14 ppm): 28 (11.8) %; Vitality (%; in brackets: SEM) ([2]; human, 0.28 ppm): 4 (2.1) %
